Experiments:
[1] = biological target: T1, Leukotriene C4 synthase (Cavia porcellus, UniProt A6XA80); type: tissue-based, Lung;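 further: enzyme inhibition assay of leukotriene C4 synthase, using LTA4 as the substrate; in other assays of this panel Not Active means under 50% inhibition at 10 µM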
T1 sequence (A6XA80 whole entry): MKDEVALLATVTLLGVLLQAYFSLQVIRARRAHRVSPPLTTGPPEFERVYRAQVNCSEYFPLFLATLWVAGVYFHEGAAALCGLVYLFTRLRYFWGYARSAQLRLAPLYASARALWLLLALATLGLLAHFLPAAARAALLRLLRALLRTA

[2] = biological target: 5-hydroxytryptamine receptor 4 (Cavia porcellus, UniProt O70528); type: cell membranes, Dunkin-Hartley, Striatum, Membrane; further: in other assays of this panel Not Active means under 50% inhibition at 10 µM
[3] = biological target: C-C chemokine receptor type 2 (Homo sapiens, UniProt P41597); type: cell membranes, Membrane; conditions: cho-k1; further: in other assays of this panel Not Active means under 50% inhibition at 10 µM
[4] = biological target: Sodium-dependent dopamine transporter (Homo sapiens, UniProt Q01959); experiment: DRUGMATRIX: Dopamine Transporter radioligand binding (ligand: [125I] RTI-55); type: cell membranes, CHO-K1, Membrane; conditions: cho-k1; Not Active = under 50% inhibition at 10 µM
[5] = biological target: T2, Cholecystokinin receptor type A (Homo sapiens, UniProt P32238); type: cell membranes, Membrane; conditions: 1321-n1; further: in other assays of this panel Not Active means under 50% inhibition at 10 µM
T2 sequence (P32238 whole entry): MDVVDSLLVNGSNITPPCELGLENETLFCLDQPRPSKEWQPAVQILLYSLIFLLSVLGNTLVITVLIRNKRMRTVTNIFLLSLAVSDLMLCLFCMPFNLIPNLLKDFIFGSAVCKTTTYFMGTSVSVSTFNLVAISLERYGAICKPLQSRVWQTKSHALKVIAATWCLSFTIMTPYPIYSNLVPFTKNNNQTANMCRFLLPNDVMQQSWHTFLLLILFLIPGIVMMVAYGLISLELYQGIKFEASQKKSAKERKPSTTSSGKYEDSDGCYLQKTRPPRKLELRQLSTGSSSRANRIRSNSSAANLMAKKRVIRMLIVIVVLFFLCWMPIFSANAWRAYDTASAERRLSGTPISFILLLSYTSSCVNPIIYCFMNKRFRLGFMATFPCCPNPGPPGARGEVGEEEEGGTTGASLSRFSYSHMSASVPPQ

[6] = biological target: T3, Alpha-2C adrenergic receptor (Homo sapiens, UniProt P18825); experiment: DRUGMATRIX: Adrenergic Alpha-2C radioligand binding (ligand: [3H] MK-912); type: cell membranes, Sf9, Membrane; conditions: sf9
T3 sequence (P18825 whole entry): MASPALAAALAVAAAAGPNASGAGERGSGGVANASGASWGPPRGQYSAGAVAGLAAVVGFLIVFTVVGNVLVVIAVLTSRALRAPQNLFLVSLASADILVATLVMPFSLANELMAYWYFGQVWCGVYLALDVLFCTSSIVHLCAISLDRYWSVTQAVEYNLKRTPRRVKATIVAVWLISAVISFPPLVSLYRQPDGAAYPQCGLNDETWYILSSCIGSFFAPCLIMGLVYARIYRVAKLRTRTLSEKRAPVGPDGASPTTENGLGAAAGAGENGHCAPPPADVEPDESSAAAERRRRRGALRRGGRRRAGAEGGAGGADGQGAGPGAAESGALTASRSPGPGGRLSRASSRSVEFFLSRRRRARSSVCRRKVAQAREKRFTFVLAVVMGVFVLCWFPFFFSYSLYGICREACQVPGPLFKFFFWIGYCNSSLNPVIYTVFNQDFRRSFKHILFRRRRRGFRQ

Measured: IC50

Sequence of C-C chemokine receptor type 2 (P41597 whole entry): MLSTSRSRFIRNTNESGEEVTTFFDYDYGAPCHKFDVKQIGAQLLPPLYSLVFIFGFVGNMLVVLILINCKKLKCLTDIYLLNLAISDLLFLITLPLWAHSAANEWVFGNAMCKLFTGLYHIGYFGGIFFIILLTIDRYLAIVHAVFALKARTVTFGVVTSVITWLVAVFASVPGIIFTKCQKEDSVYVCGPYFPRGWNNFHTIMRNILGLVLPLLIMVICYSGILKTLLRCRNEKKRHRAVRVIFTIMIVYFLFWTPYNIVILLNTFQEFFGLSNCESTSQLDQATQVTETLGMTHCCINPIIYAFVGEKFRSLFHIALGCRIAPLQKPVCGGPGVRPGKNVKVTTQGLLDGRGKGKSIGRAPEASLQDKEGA
Sequence of Sodium-dependent dopamine transporter (Q01959 whole entry): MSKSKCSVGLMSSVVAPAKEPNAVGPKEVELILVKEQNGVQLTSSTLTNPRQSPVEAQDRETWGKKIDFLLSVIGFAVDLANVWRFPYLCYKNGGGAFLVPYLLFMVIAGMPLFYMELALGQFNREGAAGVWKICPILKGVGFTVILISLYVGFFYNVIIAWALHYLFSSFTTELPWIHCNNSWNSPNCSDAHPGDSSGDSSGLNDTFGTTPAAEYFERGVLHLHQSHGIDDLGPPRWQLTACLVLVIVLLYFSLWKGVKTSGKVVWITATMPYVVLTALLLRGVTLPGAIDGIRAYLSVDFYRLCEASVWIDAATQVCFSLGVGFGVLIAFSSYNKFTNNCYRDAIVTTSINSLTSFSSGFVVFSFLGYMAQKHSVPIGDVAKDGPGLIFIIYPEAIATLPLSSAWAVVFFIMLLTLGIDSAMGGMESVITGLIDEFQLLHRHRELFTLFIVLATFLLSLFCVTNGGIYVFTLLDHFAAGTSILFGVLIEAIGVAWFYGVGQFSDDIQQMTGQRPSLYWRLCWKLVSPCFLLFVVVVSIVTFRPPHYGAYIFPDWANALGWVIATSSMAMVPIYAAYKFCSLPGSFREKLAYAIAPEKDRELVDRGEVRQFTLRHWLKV
Sequence of 5-hydroxytryptamine receptor 4 (O70528 whole entry): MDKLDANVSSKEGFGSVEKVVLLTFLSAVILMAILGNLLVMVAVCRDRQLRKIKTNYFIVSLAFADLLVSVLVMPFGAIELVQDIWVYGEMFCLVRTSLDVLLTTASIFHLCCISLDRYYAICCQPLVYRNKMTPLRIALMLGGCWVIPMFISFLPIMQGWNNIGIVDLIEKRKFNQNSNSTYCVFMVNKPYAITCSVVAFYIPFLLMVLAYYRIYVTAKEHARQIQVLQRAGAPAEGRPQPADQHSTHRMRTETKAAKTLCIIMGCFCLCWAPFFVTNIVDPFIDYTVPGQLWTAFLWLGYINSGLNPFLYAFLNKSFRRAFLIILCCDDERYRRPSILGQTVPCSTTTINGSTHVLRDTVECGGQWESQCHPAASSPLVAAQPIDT

O=C(O)CCNC(=O)c1ccccc1 [BETAMIPRON]
Not Active: [1] | [2] | [3] | [4] | [5] | [6]

CC(=O)Oc1ccc(C(c2ccc(OC(C)=O)cc2)c2ccccn2)cc1 [BISACODYL]
Not Active: [1] | [2] | [3] | [5] | [6]

Cc1cc2c(OCC(CNC(C)(C)C)OC(=O)c3ccccc3)cccc2[nH]1 (configuration not stated) [BOPINDOLOL]
Not Active: [1] | [2] | [3] | [4] | [5] | [6]

Brc1c(NC2=NCCN2)ccc2nccnc12 [BRIMONIDINE]
Not Active: [1] | [2] | [3] | [4] | [5] | [6]

CN(C)[C@@H]1C(O)=C(C(N)=O)C(=O)[C@@]2(O)C(O)=C3C(=O)c4c(O)ccc(Cl)c4[C@@](C)(O)[C@H]3C[C@@H]12 [CHLORTETRACYCLINE]
Not Active: [1] | [2] | [3] | [4] | [5] | [6]

CN/C(=N\CCSCc1nc[nH]c1C)NC#N [CIMETIDINE]
Not Active: [1] | [2] | [3] | [4] | [5] | [6]

COc1cc(N)c(Cl)cc1C(=O)NC1CCN(CCCOc2ccc(F)cc2)CC1OC (configuration not stated) [CISAPRIDE]
Not Active: [1] | [3] | [4] | [5]

CCC(=O)O[C@]1(C(=O)CCl)[C@@H](C)C[C@H]2[C@@H]3CCC4=CC(=O)C=C[C@]4(C)[C@@]3(F)[C@@H](O)C[C@@]21C [CLOBETASOL PROPIONATE]
Not Active: [1] | [2] | [3] | [4] | [5] | [6]

O=C1CN=C(c2ccccc2Cl)c2cc([N+](=O)[O-])ccc2N1 [CLONAZEPAM]
Not Active: [1] | [2] | [3] | [4] | [5] | [6]

Nc1ccn([C@@H]2O[C@H](CO)[C@@H](O)[C@@H]2O)c(=O)n1 [CYTARABINE]
Not Active: [1] | [2] | [3] | [4] | [5] | [6]

C[C@@H](CO)NC(=O)[C@@H]1C=C2c3cccc4[nH]cc(c34)C[C@H]2N(C)C1 [ERGONOVINE]
Not Active: [1] | [2] | [3] | [4] | [6]

N=C(N)NC(=O)Cc1c(Cl)cccc1Cl [GUANFACINE]
Not Active: [1] | [2] | [3] | [4] | [5]

NC(=O)C[S+]([O-])C(c1ccccc1)c1ccccc1 (configuration not stated) [MODAFINIL]
Not Active: [1] | [2] | [3] | [5] | [6]

CC(=O)O[C@H]1C(=O)[C@@]2(C)[C@H]([C@H](OC(=O)c3ccccc3)[C@]3(O)C[C@H](OC(=O)[C@H](O)[C@@H](NC(=O)c4ccccc4)c4ccccc4)C(C)=C1C3(C)C)[C@]1(OC(C)=O)CO[C@@H]1C[C@@H]2O [PACLITAXEL]
Not Active: [1] | [2] | [3] | [4] | [6]

COc1cc2nc(N3CCN(C(=O)c4ccco4)CC3)nc(N)c2cc1OC [PRAZOSIN]
Not Active: [1] | [2] | [3] | [4] | [5]

CCCNCC(O)COc1ccccc1C(=O)CCc1ccccc1 (configuration not stated) [PROPAFENONE]
Not Active: [1] | [2] | [3] | [5] | [6]
